Consider one compound from US9145425B2, “Cephem compound having catechol group” (SHIONOGI & CO., LTD., priority 2010, dated 2015).

Test [1] deals with Acinetobacter baumannii SR24396. Nature of the test: Minimum Inhibitory Concentration (MIC), agar plate incubation, Japan Society for Chemotherapy standard method. It counts as cell-based. The conditions noted are these: Acinetobacter baumannii SR24396; no enzyme; 1000 cfu/spot; sensitive disc medium. In a few lines:
(§1)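 MIC (μg/ml) by agar plate method per Japan Society for Chemotherapy standard. Inoculum 1000 cfu/spot on sensitive disc medium.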

The subject of test [2] is Klebsiella pneumoniae ATCC 700603. The description is as above. The format is cell-based. As to conditions: Klebsiella pneumoniae ATCC 700603; SHV-18, ESBL producer strain; 1000 cfu/spot; sensitive disc medium. In a few lines:
as §1

Test [3] has as its system Pseudomonas aeruginosa SR24. The test is described as above. The format is cell-based. As to conditions: Pseudomonas aeruginosa SR24; no enzyme, ceftazidime sensitive strain; 1000 cfu/spot; sensitive disc medium. In a few lines:
as §1

In test [4] the test system is Pseudomonas aeruginosa SR27060. The test is described as above. The conditions noted are these: Pseudomonas aeruginosa SR27060; IMP-1, MBL producer strain (carbapenem resistant strain); 1000 cfu/spot; sensitive disc medium. The format is cell-based. The gist of the method: as §1
Test [5] relates to Stenotrophomonas maltophilia SR21970. Nature of the test: Minimum Inhibitory Concentration (MIC), agar plate incubation, CLSI method. It counts as cell-based. The conditions noted are these: Stenotrophomonas maltophilia SR21970; L-1, MBL producer strain (carbapenem resistant strain); 10000 cfu/spot; Mueller-Hinton agar medium. The gist of the method:
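MIC against Stenotrophomonas maltophilia SR21970 determined by CLSI agar dilution on Mueller-Hinton agar, inoculum 10000 cfu/spot. Values in μg/ml.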

Test [6] relates to P. aeruginosa SR27001 (multi-resistant Pseudomonas aeruginosa; IMP-1 producing strain). Briefly: Antimicrobial activity in vivo, mouse intraperitoneal infection, ED50 from survival rate. As to conditions: Mice (ICR type, male, 5 weeks), intravenous administration in twice from 1.5 h after infection, survival rate after 7 days. The method, then: The antimicrobial activity in vivo of the present compound (I) was determined.
Mice (ICR type, male, 5 weeks) were inoculated intraperitoneally with P. aeruginosa SR27001 (multi-resistant Pseudomonas aeruginosa; IMP-1 producing strain) to raise infection. One and half hours after, mice were treated with intravenious administration in twice, and then the ED50 value was calculated based on the survival rate after 7 days.

Test [7] has the same test system. Nature of the test: Antimicrobial activity in vitro (MIC) of the in vivo test compounds. It counts as cell-based. The conditions noted are these: addition of Tf. How it is done: Measurement of Minimum Inhibitory Concentration (MIC, μg/ml) was conducted according to the standard method of the Japan Society for Chemotherapy and the amount of bacteria for inoculation was 1000 cfu/spot, and sensitive disc medium was used as the test medium, and conducted using agar plate incubation.
The antimicrobial activity in vitro (MIC) of the test compounds was determined according to the method of Experimental Example 1.

As to `CCC(ON=C(C(=O)NC1C(=O)N2C(C(=O)[O-])=C(C[N+]34CCC(CC3)N(C(=O)c3ccc(O)c(O)c3Cl)CC4)CSC12)c1csc(N)n1)C(=O)[O-].[Na+]` (stereo not shown) [Compound I-25], the “Minimum Inhibitory Concentration (MIC)” value amounted to 0.125 µg/mL in test [1]; 0.25 µg/mL in test [2]; 0.125 µg/mL in test [3]; 0.5 µg/mL in test [4]; 1 µg/mL in test [5]. Also, the ED50 in test [6] was 3.34 mg/kg. Besides, the MIC in test [7] amounted to 1 µg/mL.
